According to patent US9073863B2, “Cyanoquinoline compounds having activity in correcting mutant-CFTR processing and increasing ion transport and uses thereof” (The Regents of the University of California, priority 2011, dated 2015):

Biological target: T1, ΔF508-CFTR (Homo sapiens, UniProt P13569, DEL508-508)
T1 construct: expressed in transfected cells; host or cells: Fischer rat thyroid (FRT) epithelial cells, stably transfected
Test: Corrector assay, YFP fluorescence plate reader iodide influx in ΔF508-CFTR expressing FRT cells
Format: cell-based
How it was run: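 Corrector mode: cells treated 18–24 h at 37 °C with compound (25 μM screen, 0–25 μM dose-response), then 10 min forskolin 20 μM + genistein 50 μM. Potentiator mode: 27 °C-rescued cells given forskolin 20 μM + compound (0–25 or 0–50 μM) for 10 min. Initial iodide influx rate from exponential fit of YFP quenching, normalized to background-subtracted initial fluorescence.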

T1 sequence (P13569 with tags, fused parts or gaps DEL508-508): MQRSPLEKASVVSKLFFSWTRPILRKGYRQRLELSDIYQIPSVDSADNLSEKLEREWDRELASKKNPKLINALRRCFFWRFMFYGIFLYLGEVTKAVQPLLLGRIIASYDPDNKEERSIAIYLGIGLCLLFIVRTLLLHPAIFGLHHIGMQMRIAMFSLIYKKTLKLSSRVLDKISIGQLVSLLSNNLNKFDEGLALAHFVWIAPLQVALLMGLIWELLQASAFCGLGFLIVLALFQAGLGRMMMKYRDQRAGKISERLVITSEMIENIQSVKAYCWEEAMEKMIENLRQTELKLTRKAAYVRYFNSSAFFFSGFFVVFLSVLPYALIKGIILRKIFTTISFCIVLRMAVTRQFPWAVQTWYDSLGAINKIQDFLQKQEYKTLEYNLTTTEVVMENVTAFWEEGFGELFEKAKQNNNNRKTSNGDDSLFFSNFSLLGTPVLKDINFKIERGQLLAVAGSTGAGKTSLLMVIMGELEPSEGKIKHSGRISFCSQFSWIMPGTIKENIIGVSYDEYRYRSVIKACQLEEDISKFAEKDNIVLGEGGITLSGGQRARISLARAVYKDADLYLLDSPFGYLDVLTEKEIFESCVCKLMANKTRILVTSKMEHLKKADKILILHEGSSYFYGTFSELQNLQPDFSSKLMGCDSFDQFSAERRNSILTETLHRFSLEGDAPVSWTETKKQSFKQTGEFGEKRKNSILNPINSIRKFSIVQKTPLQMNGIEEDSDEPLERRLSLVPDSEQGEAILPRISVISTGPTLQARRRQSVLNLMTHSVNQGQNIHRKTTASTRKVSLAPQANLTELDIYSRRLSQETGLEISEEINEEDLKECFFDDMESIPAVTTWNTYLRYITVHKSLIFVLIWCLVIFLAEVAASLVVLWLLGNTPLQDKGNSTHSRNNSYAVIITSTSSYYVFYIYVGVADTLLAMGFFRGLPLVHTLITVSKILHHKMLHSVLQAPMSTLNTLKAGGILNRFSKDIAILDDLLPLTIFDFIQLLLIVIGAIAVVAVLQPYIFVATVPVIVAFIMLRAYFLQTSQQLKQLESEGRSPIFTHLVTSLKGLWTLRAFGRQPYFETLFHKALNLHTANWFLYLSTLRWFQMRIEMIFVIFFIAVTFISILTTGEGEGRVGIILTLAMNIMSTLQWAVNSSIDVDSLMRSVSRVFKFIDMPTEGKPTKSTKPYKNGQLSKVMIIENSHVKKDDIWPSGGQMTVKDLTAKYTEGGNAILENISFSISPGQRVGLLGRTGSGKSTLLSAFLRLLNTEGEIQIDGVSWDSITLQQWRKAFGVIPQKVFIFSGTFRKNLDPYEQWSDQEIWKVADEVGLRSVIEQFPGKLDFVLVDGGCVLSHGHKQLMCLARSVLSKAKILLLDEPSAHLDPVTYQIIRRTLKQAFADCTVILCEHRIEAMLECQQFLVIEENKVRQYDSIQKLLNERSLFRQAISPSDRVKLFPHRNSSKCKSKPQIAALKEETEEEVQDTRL

iodide influx after incubation at 27° C. (Compound 22 (20 µM) or Corr-4a (10 µM), 24 h, 27° C., vs low-temperature rescue control): substantially increased iodide influx
iodide influx after incubation at 37° C. (Compound 22 (20 µM) or Corr-4a (10 µM), 24 h, 37° C., with genistein): increased iodide influx
additivity of corrector action with Corr-4a (iodide influx) (maximal concentrations of Compound 22 and Corr-4a, alone or in combination): significant additivity
SMILES: COc1cccc(C(=O)NCCNc2nc3cc(C)cc(C)c3cc2C#N)c1 [Compound 22, N-(2-((3-Cyano-5,7-dimethylquinolin-2-yl)amino)ethyl)-3-methoxybenzamide]
corrector and potentiator activities, in words (concentration-dependence in corrector and potentiator I− influx assays (FIG. 2, FIG. 7)): both corrector and potentiator activities
